In publication PMC9363158 (HIV medicine, 2021):
Where “and” joins values, the source holds several entries; their conditions need not be identical. Equal entries are not always repeated. Where two headings read alike, the source gives them in different places.

Experiments:
CYP2B6 [1] = test: CYP gene expression in human hepatocytes; type: in vitro ADME
[2] = clinical observation with rifampin; cited from earlier work
CYP1A2 = test: CYP gene expression in human hepatocytes; type: in vitro ADME
CYP3A4 [3] = tested on: CYP3A4
[4] = dolutegravir protein binding in Williams' Medium E by rapid equilibrium dialysis; type: in vitro ADME
[5] = in vivo; cited from earlier work
CYP2B6 [6] = conditions: total dolutegravir up to and including 40 μM, 48 h; cited from earlier work
CYP3A4 [7] = conditions: total dolutegravir up to and including 40 μM, 48 h; cited from earlier work
CYP3A4 [8] = test: in vitro; conditions: human, fold induction of CYP3A4 expression
rhCYP3A4 = rhCYP3A4 (Homo sapiens, UniProt P08684); test: levonorgestrel clearance by recombinant human CYP; type: in vitro ADME
rhCYP3A5 = rhCYP3A5 (Homo sapiens, UniProt P20815); test: levonorgestrel clearance by recombinant human CYP; type: in vitro ADME
rhCYP2C9 = rhCYP2C9 (Homo sapiens, UniProt P11712); test: levonorgestrel clearance by recombinant human CYP; type: in vitro ADME
rhCYP2C19 = rhCYP2C19 (Homo sapiens, UniProt P33261); test: levonorgestrel clearance by recombinant human CYP; type: in vitro ADME
rhCYP1A2 = target: T1, rhCYP1A2 (Homo sapiens, UniProt P05177); test: levonorgestrel clearance by recombinant human CYP; type: in vitro ADME
T1 sequence (P05177 1-516): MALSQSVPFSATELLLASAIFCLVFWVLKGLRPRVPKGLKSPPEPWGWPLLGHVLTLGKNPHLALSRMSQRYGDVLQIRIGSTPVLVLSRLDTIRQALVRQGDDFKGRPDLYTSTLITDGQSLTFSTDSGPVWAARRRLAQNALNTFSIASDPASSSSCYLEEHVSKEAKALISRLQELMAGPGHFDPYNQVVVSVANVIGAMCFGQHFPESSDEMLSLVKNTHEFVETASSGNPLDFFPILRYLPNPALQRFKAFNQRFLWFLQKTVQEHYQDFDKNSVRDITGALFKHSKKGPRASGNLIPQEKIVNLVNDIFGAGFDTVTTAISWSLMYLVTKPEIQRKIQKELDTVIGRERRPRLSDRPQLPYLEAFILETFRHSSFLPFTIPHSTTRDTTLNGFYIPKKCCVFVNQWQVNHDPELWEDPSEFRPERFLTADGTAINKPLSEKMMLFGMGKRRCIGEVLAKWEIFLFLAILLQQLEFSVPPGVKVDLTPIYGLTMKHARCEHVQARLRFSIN

rhCYP2B6 = target: T2, rhCYP2B6 (Homo sapiens, UniProt P20813); test: levonorgestrel clearance by recombinant human CYP; type: in vitro ADME
T2 sequence (P20813 1-491): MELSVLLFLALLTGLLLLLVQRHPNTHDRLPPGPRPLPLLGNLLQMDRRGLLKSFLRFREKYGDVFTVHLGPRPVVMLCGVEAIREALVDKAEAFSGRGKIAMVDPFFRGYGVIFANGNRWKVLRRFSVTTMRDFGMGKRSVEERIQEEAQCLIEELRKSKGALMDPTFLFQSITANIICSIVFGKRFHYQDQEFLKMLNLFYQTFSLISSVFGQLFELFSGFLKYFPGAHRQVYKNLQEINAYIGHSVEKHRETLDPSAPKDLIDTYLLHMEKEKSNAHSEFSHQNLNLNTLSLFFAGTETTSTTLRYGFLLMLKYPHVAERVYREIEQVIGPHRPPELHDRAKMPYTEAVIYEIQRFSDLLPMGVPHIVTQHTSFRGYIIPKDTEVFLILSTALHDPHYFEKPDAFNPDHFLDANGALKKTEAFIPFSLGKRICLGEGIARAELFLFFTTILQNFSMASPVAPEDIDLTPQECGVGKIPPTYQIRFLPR

hepatic CYPs = test: total apparent and systemic plasma clearance scaled from rhCYP data; type: in vitro ADME, human
[9] = levonorgestrel CLint.app. by cryopreserved primary human hepatocytes; type: in vitro ADME; conditions: cryopreserved primary human hepatocytes (plated)
[10] = administered orally; cited from earlier work
[11] = Jadelle subdermal implants, cited from earlier work
[12] = cited from earlier work
CYP3A4 [13] = conditions: read-out: mean observed Km of progesterone metabolism by CYP3A4; liver microsome studies; cited from earlier work
CYP2C19 = conditions: read-out: mean observed Km of progesterone metabolism by CYP2C19; liver microsome studies; cited from earlier work
CYP2C9 = conditions: read-out: mean observed Km of progesterone metabolism by CYP2C9; liver microsome studies; cited from earlier work
[14] = human, cryopreserved primary human hepatocytes
[15] = levonorgestrel 5 μM, 60 min, vs ketoconazole inhibitor control
[16] = scaled from rhCYP data to adult female liver (Eq. 2)

Sequence of rhCYP3A5 (P20815 whole entry): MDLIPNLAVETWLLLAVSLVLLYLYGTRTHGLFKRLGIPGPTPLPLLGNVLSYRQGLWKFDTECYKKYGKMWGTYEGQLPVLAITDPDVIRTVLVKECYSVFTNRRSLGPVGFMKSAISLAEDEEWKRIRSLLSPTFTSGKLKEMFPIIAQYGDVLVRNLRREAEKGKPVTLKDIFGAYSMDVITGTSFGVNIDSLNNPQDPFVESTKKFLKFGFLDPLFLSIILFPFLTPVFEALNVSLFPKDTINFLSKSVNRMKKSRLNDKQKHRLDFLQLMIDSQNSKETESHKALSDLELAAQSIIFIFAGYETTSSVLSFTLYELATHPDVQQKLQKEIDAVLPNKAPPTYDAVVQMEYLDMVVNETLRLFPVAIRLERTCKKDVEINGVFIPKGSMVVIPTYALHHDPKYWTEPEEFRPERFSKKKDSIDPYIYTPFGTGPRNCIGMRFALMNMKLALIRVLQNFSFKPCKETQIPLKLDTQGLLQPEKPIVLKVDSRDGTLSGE
Sequence of rhCYP2C19 (P33261 whole entry): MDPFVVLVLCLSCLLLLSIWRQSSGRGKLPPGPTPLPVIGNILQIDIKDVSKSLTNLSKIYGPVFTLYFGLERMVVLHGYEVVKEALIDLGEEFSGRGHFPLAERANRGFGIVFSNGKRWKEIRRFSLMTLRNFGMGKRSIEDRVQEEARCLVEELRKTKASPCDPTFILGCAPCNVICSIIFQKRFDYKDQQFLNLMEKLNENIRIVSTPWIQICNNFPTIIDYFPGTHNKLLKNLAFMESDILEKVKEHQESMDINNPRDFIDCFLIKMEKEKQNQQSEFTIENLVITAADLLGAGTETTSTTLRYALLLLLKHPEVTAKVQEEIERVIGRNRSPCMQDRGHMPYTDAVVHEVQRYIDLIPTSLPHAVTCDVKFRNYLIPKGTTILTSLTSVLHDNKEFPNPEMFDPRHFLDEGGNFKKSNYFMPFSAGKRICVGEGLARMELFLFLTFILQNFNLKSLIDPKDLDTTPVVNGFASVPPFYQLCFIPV
Sequence of rhCYP2C9 (P11712 whole entry): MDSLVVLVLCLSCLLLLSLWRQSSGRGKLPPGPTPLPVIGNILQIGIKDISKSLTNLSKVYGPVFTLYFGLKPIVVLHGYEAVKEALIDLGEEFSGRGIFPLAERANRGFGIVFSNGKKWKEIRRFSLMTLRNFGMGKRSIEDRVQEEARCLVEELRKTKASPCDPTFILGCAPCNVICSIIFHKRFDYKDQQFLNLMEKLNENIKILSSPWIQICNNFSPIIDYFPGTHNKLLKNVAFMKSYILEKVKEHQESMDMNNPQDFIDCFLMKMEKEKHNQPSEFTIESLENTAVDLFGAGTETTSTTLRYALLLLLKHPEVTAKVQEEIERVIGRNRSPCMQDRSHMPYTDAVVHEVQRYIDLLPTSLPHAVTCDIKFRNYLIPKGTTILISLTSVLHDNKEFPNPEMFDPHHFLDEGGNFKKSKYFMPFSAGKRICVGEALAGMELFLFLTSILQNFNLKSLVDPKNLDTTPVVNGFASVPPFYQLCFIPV
Sequence of rhCYP3A4 (P08684 whole entry): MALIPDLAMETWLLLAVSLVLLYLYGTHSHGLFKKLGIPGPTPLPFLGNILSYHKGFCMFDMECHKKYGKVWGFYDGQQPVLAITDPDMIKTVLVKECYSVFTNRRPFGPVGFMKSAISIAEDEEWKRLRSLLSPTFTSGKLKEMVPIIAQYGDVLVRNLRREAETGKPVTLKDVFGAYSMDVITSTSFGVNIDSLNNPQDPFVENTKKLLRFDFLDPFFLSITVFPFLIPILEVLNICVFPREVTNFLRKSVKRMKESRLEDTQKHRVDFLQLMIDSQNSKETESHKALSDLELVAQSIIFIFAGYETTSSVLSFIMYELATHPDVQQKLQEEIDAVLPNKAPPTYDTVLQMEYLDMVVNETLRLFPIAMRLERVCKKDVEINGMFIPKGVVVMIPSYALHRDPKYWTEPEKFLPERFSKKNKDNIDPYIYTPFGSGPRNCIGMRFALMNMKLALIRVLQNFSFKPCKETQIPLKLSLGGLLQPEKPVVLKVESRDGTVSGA

Structure (SMILES): CO[C@H]1/C=C/O[C@@]2(C)Oc3c(C)c(O)c4c(O)c(c(/C=N/N5CCN(C)CC5)c(O)c4c3C2=O)NC(=O)/C(C)=C\C=C\[C@H](C)[C@H](O)[C@@H](C)[C@@H](O)[C@@H](C)[C@H](OC(C)=O)[C@@H]1C [rifampin]
- fold induction at 72 h, 10 μM (CYP2B6 [1]; [14]): 2 ± 0.5
- decrease of levonorgestrel exposure [2]: 58%

Structure (SMILES): CCC1(c2ccccc2)C(=O)NC(=O)NC1=O [phenobarbital]
- fold induction at 72 h, 1 mM (CYP1A2; [14]): 2.7 ± 0.6
- fold induction at 72 h, 1 mM (CYP2B6 [1]; [14]): 2.6 ± 1.1
- fold increase in CYP3A4 expression (CYP3A4 [3]; human, hepatocytes): 4.8 ± 0.7 fold

Structure (SMILES): C[C@@H]1CCO[C@H]2Cn3cc(C(=O)NCc4ccc(F)cc4F)c(=O)c(O)c3C(=O)N12 [dolutegravir]
- fraction unbound at 4 h, 5 μM [4]: 0.43 ± 0.09
- induction of CYP1A2 expression (≥ two-fold above vehicle control) (CYP1A2; dolutegravir 0.00033–10 μM (unbound 0.142–4310 nM), 72 h): did not induce the expression of CYP1A2
- effect on expression of CYP2B6 (CYP2B6 [1]; dolutegravir at concentrations spanning unbound range reported in human plasma (24.6–57.2 nM), 72 h): no effect
- fold induction at 72 h, 3.33 μM (CYP2B6 [1]; [14]): 2.2 ± 0.3
- fold induction at 72 h, 10 μM (CYP2B6 [1]; [14]): 2.3 ± 0.7
- effect on expression of CYP3A4 (CYP3A4 [3]): no effect
- unbound concentration range in human plasma [5]: 24.6 to 57.2 nM
- effect on expression of CYP2B6 (CYP2B6 [6]): expression of neither CYP2B6 nor CYP3A4 was affected
- effect on expression of CYP3A4 (CYP3A4 [7]): expression of neither CYP2B6 nor CYP3A4 was affected
- fold induction (CYP3A4 [8]): 2.3 ± 0.4

Structure (SMILES): C#C[C@]1(O)CC[C@H]2[C@@H]3CCC4=CC(=O)CC[C@@H]4[C@H]3CC[C@@]21CC [levonorgestrel]
- levonorgestrel CLint.app. mediated by rhCYP3A4 (rhCYP3A4; [15]): 0.182 ± 0.036 µL/min/pmol
- total intrinsic clearance by a single CYP in the liver as a whole (TCLH), CYP3A4 (rhCYP3A4; [16]): 52.5 ± 10.4 L/h
- levonorgestrel CLint.app. rhCYP3A5 (rhCYP3A5; [15]): 0.178 ± 0.027 µL/min/pmol
- TCLH, CYP3A5 (rhCYP3A5; [16]): 9.4 ± 1.4 L/h
- levonorgestrel CLint.app. rhCYP2C9 (rhCYP2C9; levonorgestrel 5 μM, 60 min, vs sulfaphenazole inhibitor control): 0.062 ± 0.010 µL/min/pmol
- TCLH, CYP2C9 (rhCYP2C9; [16]): 11.6 ± 1.9 L/h
- levonorgestrel CLint.app. rhCYP2C19 (rhCYP2C19; levonorgestrel 5 μM, 60 min, vs (+)-N-3-benzylnirvanol inhibitor control): 0.046 ± 0.005 µL/min/pmol
- TCLH, CYP2C19 (rhCYP2C19; [16]): 1.6 ± 0.2 L/h
- levonorgestrel CLint.app. rhCYP1A2 (rhCYP1A2; levonorgestrel 5 μM, 60 min, vs α-naphthoflavone inhibitor control): 0.028 ± 0.012 µL/min/pmol
- TCLH, CYP1A2 (rhCYP1A2; [16]): 3.4 ± 1.5 L/h
- levonorgestrel CLint.app. rhCYP2B6 (rhCYP2B6; levonorgestrel 5 μM, 60 min, vs sertraline inhibitor control): 0.052 ± 0.004 µL/min/pmol
- TCLH, CYP2B6 (rhCYP2B6; [16]): 2.6 ± 0.2 L/h
- total systemic plasma clearance (hepatic CYPs; from CLapp, fu 3% (Eq. 4)): 2.38 ± 0.46 L/h
- total apparent clearance (CLapp) by the hepatic CYPs measured (hepatic CYPs; sum of TCLH of six CYPs (Eq. 3)): 80.97 ± 15.53 L/h
- hepatocyte CLint at 1 nM [9]: 22.4 ± 5 µL/min/1e6 cells
- oral bioavailability [10]: high bioavailability
- plasma concentration of levonorgestrel ([11]; 1 month after insertion): 1.39 nM and 435 pg/mL
- plasma concentration of levonorgestrel ([11]; 3 years after insertion): 0.90 nM and 280 pg/mL
- bound to human plasma [12]: 97%
- fraction unbound in plasma (fu) ([12]; set from 97% binding): 3%

Structure (SMILES): CC(=O)[C@H]1CC[C@H]2[C@@H]3CCC4=CC(=O)CC[C@]4(C)[C@H]3CC[C@]12C [progesterone]
- Km (CYP3A4 [13]): 80 µM
- Km (CYP2C19): 37 µM
- Km (CYP2C9): 46 µM
